Data set [1] can be described thus: Cytotoxicity against African green monkey Vero E6 cells assessed as cell viability by CCK-8 assay. Type of data set: toxicity, cell-based, Vero C1008. The settings on record: African green monkey (Chlorocebus sabaeus).
Data set [2] is described as follows: Half life in male ICR mouse at 10 mg/kg, po measured upto 24 hrs by LC-MS/MS analysis. Type of data set: ADME, organism-based. The settings on record: in vivo.
Data set [3] is described as follows: Cmax in male ICR mouse at 10 mg/kg, po measured upto 24 hrs by LC-MS/MS analysis. Type of data set: ADME, organism-based. Conditions: in vivo.
Data set [4] can be described thus: AUC (0 to 24 hrs) in male ICR mouse at 10 mg/kg, po measured upto 24 hrs by LC-MS/MS analysis. The settings on record: in vivo. It is filed as ADME, organism-based.
A short description of data set [5]: AUC (0 to 24 hrs) in male ICR mouse at 2.5 mg/kg, iv measured upto 24 hrs by LC-MS/MS analysis. The settings on record: in vivo. Type of data set: ADME, organism-based.
The subject of data set [6] is Severe acute respiratory syndrome coronavirus 2. Briefly: Inhibition of SARS CoV-2 envelope (2-E) channel at 100 uM.
The nature of data set [7]: Half life in male ICR mouse at 2.5 mg/kg, iv measured upto 24 hrs by LC-MS/MS analysis. Type of data set: ADME, organism-based. The settings on record: in vivo.
Data set [8] can be described thus: Oral bioavailability in male ICR mouse at 10 mg/kg measured upto 24 hrs by LC-MS/MS analysis. Type of data set: ADME, organism-based. Conditions: in vivo.
The nature of data set [9]: Tmax in male ICR mouse at 10 mg/kg, po measured upto 24 hrs by LC-MS/MS analysis. It is filed as ADME, organism-based. The settings on record: in vivo.
Data set [10] in a line: Toxicity in mouse assessed as animal death at 10 to 200 mg/kg administered for 10 days. It is filed as organism-based. The settings on record: in vivo, 240 h, dose 10-200 mg/kg, time 10 day.
A short description of data set [11]: Toxicity in mouse assessed as body weight loss at 10 to 200 mg/kg administered for 10 days. The settings on record: in vivo, 240 h, dose 10-200 mg/kg, time 10 day. It is filed as organism-based.
The nature of data set [12]: Inhibition of SARS CoV-2 envelope (2-E) channel. Set-up: species or system Severe acute respiratory syndrome coronavirus 2.

Activity calls are given as the source filed them. The calls are words filed in the database; no cut-off is given here.

For the compound `COc1cc2c3cc1Oc1c(OC)c(OC)cc4c1[C@H](Cc1ccc(cc1)Oc1cc(ccc1C(=O)NC1CCC1)C[C@H]3N(C)CC2)N(C)CC4`, in data set [1], the concentration for half-maximal inhibition (IC50) worked out at 33.9 µM.
On the same count and under the same terms, the result for `COC(=O)c1ccc2cc1Oc1ccc(cc1)C[C@H]1c3c(cc(OC)c(OC)c3Oc3cc4c(cc3OC)CCN(C)[C@@H]4C2)CCN1C` reads 29.5 µM.
Take `COc1cc2c3cc1Oc1c(OC)c(OC)cc4c1[C@H](Cc1ccc(cc1)Oc1cc(ccc1C(=O)NC1CC1)C[C@H]3N(C)CC2)N(C)CC4`: the half-life in [2] was 16 h; in data set [7] it was 21.1 h. In [3], this compound gave a Cmax of 313 ng/mL. In data set [1], the IC50 turned out to be 62.3 µM. In addition, the AUC(0-t) at 24 h is 5000 ng·h/mL in [4] and 1840 ng·h/mL in data set [5]. The inhibition result in data set [6] was “inactive”. For the same compound, in data set [8], the bioavailability amounted to 68.1%. Also, in [9], the Tmax was found to be 1 h.
As for `C=C(C)c1ccc2cc1Oc1ccc(cc1)C[C@H]1c3c(cc(OC)c(OC)c3Oc3cc4c(cc3OC)CCN(C)[C@@H]4C2)CCN1C`, the IC50 in data set [1] is 6.13 µM.
Take `COc1cc2c3cc1Oc1c(OC)c(OC)cc4c1[C@H](Cc1ccc(cc1)Oc1cc(ccc1C(=O)NC(C)C)C[C@H]3N(C)CC2)N(C)CC4`: the half-inhibitory concentration (IC50) in data set [1] is 26.4 µM.
Take `COc1ccc(NC(=O)c2ccc3cc2Oc2ccc(cc2)C[C@H]2c4c(cc(OC)c(OC)c4Oc4cc5c(cc4OC)CCN(C)[C@@H]5C3)CCN2C)cc1`: the IC50 in [1] turned out to be 10.6 µM.
Consider `COc1cc2c3cc1Oc1c(OC)c(OC)cc4c1[C@H](Cc1ccc(cc1)Oc1cc(ccc1C(C)=O)C[C@H]3N(C)CC2)N(C)CC4`, for which the IC50 in data set [1] came out at 29.4 µM.
As to `COc1cc2c3cc1Oc1c(OC)c(OC)cc4c1[C@H](Cc1ccc(cc1)Oc1cc(ccc1C(=O)Nc1ccccc1)C[C@H]3N(C)CC2)N(C)CC4`, the half-maximal inhibitory concentration (IC50) in [1] amounted to 6.88 µM.
`COc1cc2c3cc1Oc1c(OC)c(OC)cc4c1[C@H](Cc1ccc(cc1)Oc1cc(cc([N+](=O)[O-])c1)C[C@H]3N(C)CC2)N(C)CC4`: the IC50 in [1] came to 24.3 µM.
Same read-out and setting: the value for `COc1cc2c3cc1Oc1c(OC)c(OC)cc4c1[C@H](Cc1ccc(cc1)Oc1cc(ccc1C(=O)NC1CCCC1)C[C@H]3N(C)CC2)N(C)CC4` was 22.5 µM.
Still for that read-out and setting: the result for `COc1cc2c3cc1Oc1c(OC)c(OC)cc4c1[C@H](Cc1ccc(cc1)Oc1cc(ccc1C1CC1)C[C@H]3N(C)CC2)N(C)CC4` reads 10.9 µM.
`COc1cc2c3cc1Oc1c(OC)c(OC)cc4c1[C@H](Cc1ccc(cc1)Oc1cc(ccc1O)C[C@H]3N(C)CC2)N(C)CC4` [AROMOLINE]: the half-life is 6.39 h in data set [2] and 13.2 h in data set [7]. This compound also had a Cmax in data set [3] of 260 ng/mL. Moreover, the IC50 in [1] was determined as 29.9 µM. Moreover, the AUC(0-t) at 24 h in data set [4] was 1790 ng·h/mL; in [5], 1300 ng·h/mL. The bioavailability in data set [8] is 34.5%. Besides, in [9], the Tmax came to 0.33 h.
With `COc1cc2c3cc1Oc1c(OC)c(OC)cc4c1[C@H](Cc1ccc(cc1)Oc1cc(ccc1C(=O)NC15CC6CC(CC(C6)C1)C5)C[C@H]3N(C)CC2)N(C)CC4`, in data set [1], the concentration for half-maximal inhibition (IC50) stood at 4.9 µM.
`CCCCCNC(=O)c1ccc2cc1Oc1ccc(cc1)C[C@H]1c3c(cc(OC)c(OC)c3Oc3cc4c(cc3OC)CCN(C)[C@@H]4C2)CCN1C`: in data set [1], the IC50 turned out to be 22.5 µM.
Same read-out and setting: the value for `CNC(=O)c1ccc2cc1Oc1ccc(cc1)C[C@H]1c3c(cc(OC)c(OC)c3Oc3cc4c(cc3OC)CCN(C)[C@@H]4C2)CCN1C` was 66.7 µM.
On to `COc1cc2c3cc1Oc1c(OC)c(OC)cc4c1[C@H](Cc1ccc(cc1)Oc1cc(ccc1C(N)=O)C[C@H]3N(C)CC2)N(C)CC4`, for which the half-life in data set [2] is 12.5 h; in [7], 17.1 h. Besides, the Activity entry in [10] and in [11] was “Non-toxic” throughout. In data set [3], this compound gave a Cmax of 854 ng/mL. The IC50 worked out at 63.2 µM in data set [1] and 0.78 µM in [12]. For the same compound, the exposure AUC(0-t) at 24 h in data set [4] was determined as 12800 ng·h/mL; in data set [5] it was 4120 ng·h/mL. Moreover, in data set [8], the bioavailability was found to be 77.4%. The time of peak concentration (Tmax) in data set [9] came out at 1.75 h.
For the compound `COc1cc2c3cc1Oc1c(OC)c(OC)cc4c1[C@H](Cc1ccc(cc1)Oc1cccc(c1)C[C@H]3N(C)CC2)N(C)CC4`, the 50% inhibitory concentration (IC50) in data set [1] is 17.1 µM.
Take `COc1cc2c3cc1Oc1c(OC)c(OC)cc4c1[C@H](Cc1ccc(cc1)Oc1cc(ccc1C(=O)Nc1cccnc1)C[C@H]3N(C)CC2)N(C)CC4`: in [1], the IC50 was found to be 26.4 µM.
Turning to `C=CC(=O)Nc1ccc2cc1Oc1ccc(cc1)C[C@H]1c3c(cc(OC)c(OC)c3Oc3cc4c(cc3OC)CCN(C)[C@@H]4C2)CCN1C`, in [1], the IC50 was 31.1 µM.
For the compound `COc1cc2c3cc1Oc1c(OC)c(OC)cc4c1[C@H](Cc1ccc(cc1)Oc1cc(ccc1C)C[C@H]3N(C)CC2)N(C)CC4`, the IC50 in [1] worked out at 10.3 µM.
For `COc1cc2c3cc1Oc1c(OC)c(OC)cc4c1[C@H](Cc1ccc(cc1)Oc1cc(ccc1C(=O)N1CCCCC1)C[C@H]3N(C)CC2)N(C)CC4`, the IC50 in data set [1] came to 24.6 µM.
Still for that read-out and setting: the result for `COc1cc2c3cc1Oc1c(OC)c(OC)cc4c1[C@H](Cc1ccc(cc1)Oc1cc(ccc1C(=O)Nc1ccc(C(F)(F)F)cc1)C[C@H]3N(C)CC2)N(C)CC4` reads 10.5 µM.
`COc1cc2c3cc1Oc1c(OC)c(OC)cc4c1[C@H](Cc1ccc(cc1)Oc1cc(ccc1C(=O)NCCOCCO)C[C@H]3N(C)CC2)N(C)CC4`: in data set [1], the half-maximal inhibitory concentration (IC50) amounted to 123 µM.
Consider `COc1cc2c3cc1Oc1c(OC)c(OC)cc4c1[C@H](Cc1ccc(cc1)OC1C=C(Cc5[nH]c(=O)oc51)C[C@H]3N(C)CC2)N(C)CC4` (some centres undefined), for which, in data set [1], the IC50 turned out to be 14.8 µM.

Values taken from ChEMBL document CHEMBL6074634, “Design, synthesis, and evaluation of novel oxyacanthine derivatives for anti-SARS-CoV-2 activity” (Bioorg Med Chem Lett, 2024).
